Test: Combination therapy of antibiotic and COX-2 selective inhibitor administered to a mammal to treat or prevent a bacterial infection
Settings: pharmaceutically effective amount, administered together with a pharmaceutically effective amount of linezolid to a mammal

## CS(=O)(=O)c1ccc(C2=C(c3ccccc3)C(=O)OC2)cc1 [rofecoxib]
  side effects resulting from the administration of the antibiotic: reduced side effects
